Ten compounds from patent US20170280720A1, “ARGININE […] INHIBITORS AND USES THEREOF” (EPIZYME, INC., priority 2014, published 2017) can be followed below.

For this test, the target named is T1, human PRMT1 (Homo sapiens, UniProt Q99873).
T1 construct: GST-tagged PRMT1; made in house; host or cells: High Five insect cells (baculovirus, pFastBacI)
Kind of test: PRMT1 biochemical assay (3H-SAM Flashplate, peptide substrate). The following applies: read-out: PRMT1_ IC50. An outline of the steps:
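FLAG-tagged full-length human PRMT1 (0.5 nM, GST-tagged, insect-cell expressed) preincubated 30 min at RT with compound, then biotinylated histone H4 36-50 peptide (20 nM) plus 200 nM 3H-SAM and 1.5 uM SAM in Bicine pH 7.6, 2% DMSO. 3H-methylated peptide captured on streptavidin Flashplate; IC50 from 3/4-parameter fit.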

As a reminder, the IC50 is the concentration that gives 50% inhibition.

T1 sequence (Q99873 with tags, fused parts or gaps): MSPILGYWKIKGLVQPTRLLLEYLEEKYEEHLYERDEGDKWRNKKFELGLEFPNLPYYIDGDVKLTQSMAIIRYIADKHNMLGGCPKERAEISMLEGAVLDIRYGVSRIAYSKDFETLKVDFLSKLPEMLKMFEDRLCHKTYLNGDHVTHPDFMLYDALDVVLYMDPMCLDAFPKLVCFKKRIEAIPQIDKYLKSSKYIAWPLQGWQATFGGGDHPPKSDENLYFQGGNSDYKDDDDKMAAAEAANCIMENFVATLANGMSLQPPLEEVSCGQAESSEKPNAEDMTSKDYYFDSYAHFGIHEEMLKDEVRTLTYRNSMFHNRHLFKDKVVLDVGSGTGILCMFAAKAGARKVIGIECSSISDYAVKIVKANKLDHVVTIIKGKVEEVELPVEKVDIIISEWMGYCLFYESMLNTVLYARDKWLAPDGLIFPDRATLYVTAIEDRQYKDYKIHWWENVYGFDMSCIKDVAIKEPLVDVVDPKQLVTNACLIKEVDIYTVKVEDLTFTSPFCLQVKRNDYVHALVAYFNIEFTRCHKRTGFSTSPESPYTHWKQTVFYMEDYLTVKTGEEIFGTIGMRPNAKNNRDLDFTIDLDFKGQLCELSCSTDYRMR

Take `CC(C)n1ncc2c(C(=O)NCc3c(F)cccc3F)cc(-c3cccc(CNCCN)c3)nc21` [Compound 168]: the IC50 was 7810 nM.

`CN(CCN)Cc1cccc(-c2nc(NCc3cccnc3)c3cnn(C4CC4)c3n2)c1` [Compound 40]: the IC50 was 168 nM.

As for `NCCNCc1ccc(-c2ccc3ncn(C4CCNCC4)c3c2)cc1` [Compound 157], the IC50 was found to be 2430 nM.

Consider `CNCCN(C)Cc1cccc(-c2cc(Nc3ncc(C)s3)c3cnn(C(C)C)c3n2)c1` [Compound 20], for which the IC50 is 85 nM.

`CNCCN(C)Cc1cccc(-c2cc(NC(=O)NC3CCOCC3)c3cnn(C(C)C)c3n2)c1` [Compound 133]: the 50% inhibitory concentration (IC50) was found to be 866 nM.

On to `CNCCN(C)Cc1cccc(-c2cc(C(=O)NC3CCOCC3)c3cnn(C4CCC4)c3n2)c1` [Compound 29], for which the IC50 amounted to 114 nM.

With `CC(C)n1cnc2cc(-c3cccc(CN(C)CCN)c3)ccc21` [Compound 32], the concentration for half-maximal inhibition (IC50) is 128 nM.

Turning to `CS(=O)(=O)N1CCC(Cn2cnc3ccc(-c4ccc(CNCCN)cc4)cc32)CC1` [Compound 129], the IC50 stood at 821 nM.

For the compound `CNCCN(C)Cc1cccc(-c2cc(C(=O)N(C)Cc3ccccc3)c3cnn(C(C)C)c3n2)c1` [Compound 24], the IC50 is 97.4 nM.

Turning to `CN(CCN)Cc1cccc(-c2nc(NC3CCOCC3)c3cnn(C(C)(C)C)c3n2)c1` [Compound 18], the IC50 came out at 72.8 nM.
